# Data as given in paper PMC11383987 (bioRxiv, 2024).
# Target: T1, Arabidopsis thaliana PIN8 (Arabidopsis thaliana, UniProt Q9LFP6)
# T1 sequence (Q9LFP6 1-367): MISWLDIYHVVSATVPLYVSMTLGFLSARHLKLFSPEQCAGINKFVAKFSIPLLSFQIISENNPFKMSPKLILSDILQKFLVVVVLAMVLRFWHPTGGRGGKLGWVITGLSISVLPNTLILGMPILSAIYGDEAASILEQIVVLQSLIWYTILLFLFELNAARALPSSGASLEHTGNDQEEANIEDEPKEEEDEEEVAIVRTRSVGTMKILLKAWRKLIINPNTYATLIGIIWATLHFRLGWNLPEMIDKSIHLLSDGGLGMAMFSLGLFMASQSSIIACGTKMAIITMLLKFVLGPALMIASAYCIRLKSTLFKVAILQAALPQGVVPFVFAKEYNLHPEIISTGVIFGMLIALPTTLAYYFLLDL
# Experiment: SSM electrophysiology peak current response, wild-type PIN8 proteoliposomes
# Assay type: biochemical
smiles,measurement,setting,value
"O=C(O)c1ccccc1C(=O)Nc1cccc2ccccc12 [NPA, 1-N-naphthylphthalamic acid]","effect of NPA on current response to 2,4-D","100 μM 2,4D in absence or presence of 20 µM NPA",inhibited
same,peak width of SSM current response at various lipid-to-protein ratios (LPR),"LPR10 vs LPR50, variation is consistent with transport",does not change
